The numbers were not newly measured in US7976869B2, “Fenofibrate tablets” (Laboratoires Fournier S.A., priority 2001, dated 2011), which cites them from elsewhere.

The conditions of the data set: conventional gelatin capsule form.

Read-outs that look alike come from different tables or passages of the source.

Take `CC(C)OC(=O)C(C)(C)Oc1ccc(C(=O)c2ccc(Cl)cc2)cc1` [Fenofibrate]: the bioavailability (after a meal) is listed as 89% and the bioavailability (on an empty stomach) is on record as 26%.
